How the values were obtained:
Format in all cases: cell-based, human
Conditions in all cases: 72 h
[1] = system: MCF-7 cells (breast); assay: MTT viability assay MCF-7
Procedure: (§1) A panel of five tumor cell lines and two normal cell lines was used to preliminarily test the cytotoxicity of compounds 1–4, and the experiments were conducted as previously reported. All human cell lines were acquired from American Type Culture Collection (ATCC): tumor PC-3 and DU145 (prostate), HeLa (cervix), MCF7 (breast) and HT29 (colorectal) and healthy HFF-1 (fibroblast) and RWPE-1 (prostate). The cell catalogue reference and culture media used in the experiments were CRL-1435^TM, RPMI (PC-3), HTB-81™, RPMI (DU145), CCL-2^TM, DMEM (HeLa), HTB-22^TM, DMEM (MCF-7), HTB-38^TM, modified McCoy’s 5a medium, Catalogue No. 30-2007 (HT29), SCRC-1041^TM, DMEM (HFF-1) and CRL-11609^TM, Keratinocyte-SFM (RWPE-1). Culture media were purchased from Merck: RPMI-1640, DMEM + 10% FBS (Fetal Bovine Serum) + […] (penicillin/streptomycin/amphotericin B). Media and supplements for RWPE-1 were from ThermoFisher (17005075, Madrid, Spain). MCF7 cells were additionally supplemented with insulin (0.001 mg/mL in 500 mL media). Cells were kept at 37 °C (5% CO2), and culture media were renewed three times per week. When the cells reached 80–100% confluence, they were trypsinized and centrifuged, and the concentration was adjusted to each experiment. Cells were seeded at a density of ~10,000 cells/well into 24-well plates. The cells were treated with ligands 1–4 or the cytotoxic agents PhenQE8, PhenDC3 or cisplatin at different concentrations (10 nM–100 μM). Compound solutions were freshly prepared using the appropriate culture medium. Triplicate experiments were run. For MTT viability assays, after 72 h incubation, 50 μL of MTT (5 mg/mL) was added, and an additional incubation of 4 h was allowed. The medium in each well was then replaced by DMSO, and the absorbance was measured at 570 nm using an ELISA plate reader. Absorbances were normalized using negative controls (untreated cells, in triplicate, with a maximum of 0.9% DMSO content). Dose–response curves were obtained by plotting the percentage of viable cells versus logarithmic compound concentration. IC50 values were determined using Kaleidagragh^TM (3.52) software by adjusting the data to Equation 1/(1 + 10^(m2*(log(m1) − x))); m1 = 0.000003; m2 = 1.

[2] = system: HT29 cells (colorectal); assay: MTT viability assay HT29
Procedure: as §1, with “Dose–response curves were obtained by plotting the percentage of viable cells versus logarithmic compound concentration.” left out

[3] = system: HeLa cells (cervix); assay: MTT viability assay HeLa
Procedure: as §1

2,2′-(1,10-Phenanthroline-2,9-diyl)-bis(methylene)-bis(hydrazine-1-carbothioamide) [compound 1]
IC50 [1]: 78.4 ± 11 µM | IC50 [2]: > 100 µM | IC50 [3]: ~100 µM

— article PMC10813753 (Biology, 2024)
